# Measured values: the kinase profiling compilation of Christmann-Franck et al. (2016)
# What was measured:
# Experiment in all cases: radiometric filter-binding kinase assay, Kinase HotSpot
# Conditions in all cases: compound 0.5 µM; ATP 10 µM
# LRRK2 (human) = LRRK2 (human) (UniProt Q5S007)
# CAMK2G (human) = CAMK2G (human) (UniProt Q13555)
# TAOK2 (human) = TAOK2 (human) (UniProt Q9UL54)
# MAP3K3 (human) = MAP3K3 (human) (UniProt Q99759)
# LIMK1 (human) = LIMK1 (human) (UniProt P53667)
# PRKD1 (human) = PRKD1 (human) (UniProt Q15139)
# CDK7 CCNH MNAT1 (human) = CDK7 CCNH MNAT1 (human) (UniProt P50613+P51948+P51946)
# NUAK1 (human) = NUAK1 (human) (UniProt O60285)
# PAK3 (human) = PAK3 (human) (UniProt O75914)
# STK25 (human) = STK25 (human) (UniProt O00506)
# TAOK1 (human) = TAOK1 (human) (UniProt Q7L7X3)
# INSRR (human) = INSRR (human) (UniProt P14616)
# CLK4 (human) = CLK4 (human) (UniProt Q9HAZ1)
# EPHA1 (human) = EPHA1 (human) (UniProt P21709)
# CAMK2B (human) = CAMK2B (human) (UniProt Q13554)
# PRKACA (human) = PRKACA (human) (UniProt P17612)
# STK33 (human) = STK33 (human) (UniProt Q9BYT3)
# PRKCH (human) = PRKCH (human) (UniProt P24723)
# MLTK (human) = MLTK (human) (UniProt Q9NYL2)
# MARK2 (human) = MARK2 (human) (UniProt Q7KZI7)
# STK16 (human) = STK16 (human) (UniProt O75716)
# MAP4K5 (human) = MAP4K5 (human) (UniProt Q9Y4K4)
# SRPK3 (human) = SRPK3 (human) (UniProt Q9UPE1)
# ADRBK2 (human) = ADRBK2 (human) (UniProt P35626)
# MAP3K14 (human) = MAP3K14 (human) (UniProt Q99558)
# MAP3K8 (human) = MAP3K8 (human) (UniProt P41279)
# MYLK2 (human) = MYLK2 (human) (UniProt Q9H1R3)
# DDR2 (human) = DDR2 (human) (UniProt Q16832)
# CSNK1G1 (human) = CSNK1G1 (human) (UniProt Q9HCP0)
# SGK2 (human) = SGK2 (human) (UniProt Q9HBY8)
# PRKX (human) = PRKX (human) (UniProt P51817)
# MAPK14 (human) = MAPK14 (human) (UniProt Q16539)
# DAPK3 (human) = DAPK3 (human) (UniProt O43293)
# DYRK1A (human) = DYRK1A (human) (UniProt Q13627)
# IKBKB (human) = IKBKB (human) (UniProt O14920)
# NTRK2 (human) = NTRK2 (human) (UniProt Q16620)
# GRK6 (human) = GRK6 (human) (UniProt P43250)
# TAOK3 (human) = TAOK3 (human) (UniProt Q9H2K8)
# NUAK2 (human) = NUAK2 (human) (UniProt Q9H093)
# MKNK2 (human) = MKNK2 (human) (UniProt Q9HBH9)
# AKT3 (human) = AKT3 (human) (UniProt Q9Y243)
# RPS6KA4 KD2 (human) = RPS6KA4 KD2 (human) (UniProt O75676)
# Sequence of MAPK14 (human) (Q16539 whole entry, looked up): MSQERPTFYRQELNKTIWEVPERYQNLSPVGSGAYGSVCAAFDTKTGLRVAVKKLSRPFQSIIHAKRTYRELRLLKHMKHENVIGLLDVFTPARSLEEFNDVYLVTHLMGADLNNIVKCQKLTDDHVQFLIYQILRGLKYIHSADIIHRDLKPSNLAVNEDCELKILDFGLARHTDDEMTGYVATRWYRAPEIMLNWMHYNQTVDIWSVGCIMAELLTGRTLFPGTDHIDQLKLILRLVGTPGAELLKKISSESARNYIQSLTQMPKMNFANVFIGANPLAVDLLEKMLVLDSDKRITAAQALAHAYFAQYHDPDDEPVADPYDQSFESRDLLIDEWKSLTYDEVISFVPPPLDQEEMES
# Sequence of CAMK2B (human) (Q13554 whole entry, looked up): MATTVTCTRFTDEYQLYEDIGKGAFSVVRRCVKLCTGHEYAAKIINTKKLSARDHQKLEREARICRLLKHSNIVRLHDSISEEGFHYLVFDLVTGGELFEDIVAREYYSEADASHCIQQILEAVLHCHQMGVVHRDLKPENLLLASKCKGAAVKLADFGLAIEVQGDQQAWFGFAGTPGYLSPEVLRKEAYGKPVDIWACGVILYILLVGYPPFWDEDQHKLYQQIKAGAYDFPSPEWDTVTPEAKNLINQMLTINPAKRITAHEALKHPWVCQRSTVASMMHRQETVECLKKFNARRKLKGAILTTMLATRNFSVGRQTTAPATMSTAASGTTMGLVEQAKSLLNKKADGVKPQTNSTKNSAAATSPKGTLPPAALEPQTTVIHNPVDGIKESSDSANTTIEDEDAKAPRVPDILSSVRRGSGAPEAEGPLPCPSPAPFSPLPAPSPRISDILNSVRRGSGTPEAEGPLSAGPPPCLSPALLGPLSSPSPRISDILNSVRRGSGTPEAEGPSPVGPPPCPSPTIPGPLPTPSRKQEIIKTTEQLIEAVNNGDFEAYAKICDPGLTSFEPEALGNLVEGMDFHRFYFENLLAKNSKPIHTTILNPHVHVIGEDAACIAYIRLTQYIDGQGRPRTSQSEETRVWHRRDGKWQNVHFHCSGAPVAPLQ
# Sequence of STK25 (human) (O00506 whole entry, looked up): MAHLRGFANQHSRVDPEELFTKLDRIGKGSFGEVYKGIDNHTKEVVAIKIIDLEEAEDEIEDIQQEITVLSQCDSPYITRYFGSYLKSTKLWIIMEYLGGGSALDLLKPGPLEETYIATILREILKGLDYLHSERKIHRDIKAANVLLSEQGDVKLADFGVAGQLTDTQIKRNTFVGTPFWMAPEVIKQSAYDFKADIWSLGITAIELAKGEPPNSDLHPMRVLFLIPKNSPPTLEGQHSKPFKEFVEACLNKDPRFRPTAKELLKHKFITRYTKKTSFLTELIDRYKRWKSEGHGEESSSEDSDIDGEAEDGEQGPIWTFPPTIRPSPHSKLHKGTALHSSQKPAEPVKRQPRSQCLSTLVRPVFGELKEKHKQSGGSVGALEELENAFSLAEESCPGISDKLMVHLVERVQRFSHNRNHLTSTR
# Sequence of MAP3K14 (human) (Q99558 whole entry, looked up): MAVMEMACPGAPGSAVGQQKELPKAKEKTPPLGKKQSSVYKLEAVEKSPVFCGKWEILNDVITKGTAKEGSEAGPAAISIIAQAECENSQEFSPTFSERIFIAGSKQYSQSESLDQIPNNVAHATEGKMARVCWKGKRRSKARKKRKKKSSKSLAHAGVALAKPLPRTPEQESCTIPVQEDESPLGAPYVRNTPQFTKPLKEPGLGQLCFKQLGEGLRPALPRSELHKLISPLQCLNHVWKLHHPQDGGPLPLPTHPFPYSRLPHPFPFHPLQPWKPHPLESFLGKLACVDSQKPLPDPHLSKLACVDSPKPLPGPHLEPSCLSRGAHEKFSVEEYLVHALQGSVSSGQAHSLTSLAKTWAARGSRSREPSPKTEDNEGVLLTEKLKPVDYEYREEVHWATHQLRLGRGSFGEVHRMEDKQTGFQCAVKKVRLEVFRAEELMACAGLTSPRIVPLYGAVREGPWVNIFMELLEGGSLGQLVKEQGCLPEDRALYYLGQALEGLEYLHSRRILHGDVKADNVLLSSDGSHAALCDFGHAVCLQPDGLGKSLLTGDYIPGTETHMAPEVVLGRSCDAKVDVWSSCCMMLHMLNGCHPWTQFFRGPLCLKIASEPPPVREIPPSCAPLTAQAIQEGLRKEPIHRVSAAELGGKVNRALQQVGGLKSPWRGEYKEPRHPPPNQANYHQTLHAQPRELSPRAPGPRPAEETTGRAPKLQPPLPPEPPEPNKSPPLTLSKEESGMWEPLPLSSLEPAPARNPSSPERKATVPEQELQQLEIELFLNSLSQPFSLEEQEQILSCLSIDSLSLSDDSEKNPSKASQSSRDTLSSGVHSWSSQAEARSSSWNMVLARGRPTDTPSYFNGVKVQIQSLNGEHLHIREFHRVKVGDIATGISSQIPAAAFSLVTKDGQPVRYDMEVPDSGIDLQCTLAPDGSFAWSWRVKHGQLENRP
# Sequence of MKNK2 (human) (Q9HBH9 whole entry, looked up): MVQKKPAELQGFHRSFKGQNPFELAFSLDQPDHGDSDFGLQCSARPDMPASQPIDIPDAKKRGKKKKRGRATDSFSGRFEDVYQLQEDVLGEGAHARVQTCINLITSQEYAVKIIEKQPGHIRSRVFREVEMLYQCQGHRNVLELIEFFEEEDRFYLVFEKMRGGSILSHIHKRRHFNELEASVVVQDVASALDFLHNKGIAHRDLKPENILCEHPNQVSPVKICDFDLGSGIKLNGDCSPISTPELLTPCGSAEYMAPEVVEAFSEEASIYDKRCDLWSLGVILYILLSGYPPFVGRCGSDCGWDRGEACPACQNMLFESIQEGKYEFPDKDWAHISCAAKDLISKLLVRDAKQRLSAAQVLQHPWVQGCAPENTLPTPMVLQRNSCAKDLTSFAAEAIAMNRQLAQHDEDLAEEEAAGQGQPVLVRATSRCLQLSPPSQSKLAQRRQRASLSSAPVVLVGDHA
# Sequence of TAOK2 (human) (Q9UL54 whole entry, looked up): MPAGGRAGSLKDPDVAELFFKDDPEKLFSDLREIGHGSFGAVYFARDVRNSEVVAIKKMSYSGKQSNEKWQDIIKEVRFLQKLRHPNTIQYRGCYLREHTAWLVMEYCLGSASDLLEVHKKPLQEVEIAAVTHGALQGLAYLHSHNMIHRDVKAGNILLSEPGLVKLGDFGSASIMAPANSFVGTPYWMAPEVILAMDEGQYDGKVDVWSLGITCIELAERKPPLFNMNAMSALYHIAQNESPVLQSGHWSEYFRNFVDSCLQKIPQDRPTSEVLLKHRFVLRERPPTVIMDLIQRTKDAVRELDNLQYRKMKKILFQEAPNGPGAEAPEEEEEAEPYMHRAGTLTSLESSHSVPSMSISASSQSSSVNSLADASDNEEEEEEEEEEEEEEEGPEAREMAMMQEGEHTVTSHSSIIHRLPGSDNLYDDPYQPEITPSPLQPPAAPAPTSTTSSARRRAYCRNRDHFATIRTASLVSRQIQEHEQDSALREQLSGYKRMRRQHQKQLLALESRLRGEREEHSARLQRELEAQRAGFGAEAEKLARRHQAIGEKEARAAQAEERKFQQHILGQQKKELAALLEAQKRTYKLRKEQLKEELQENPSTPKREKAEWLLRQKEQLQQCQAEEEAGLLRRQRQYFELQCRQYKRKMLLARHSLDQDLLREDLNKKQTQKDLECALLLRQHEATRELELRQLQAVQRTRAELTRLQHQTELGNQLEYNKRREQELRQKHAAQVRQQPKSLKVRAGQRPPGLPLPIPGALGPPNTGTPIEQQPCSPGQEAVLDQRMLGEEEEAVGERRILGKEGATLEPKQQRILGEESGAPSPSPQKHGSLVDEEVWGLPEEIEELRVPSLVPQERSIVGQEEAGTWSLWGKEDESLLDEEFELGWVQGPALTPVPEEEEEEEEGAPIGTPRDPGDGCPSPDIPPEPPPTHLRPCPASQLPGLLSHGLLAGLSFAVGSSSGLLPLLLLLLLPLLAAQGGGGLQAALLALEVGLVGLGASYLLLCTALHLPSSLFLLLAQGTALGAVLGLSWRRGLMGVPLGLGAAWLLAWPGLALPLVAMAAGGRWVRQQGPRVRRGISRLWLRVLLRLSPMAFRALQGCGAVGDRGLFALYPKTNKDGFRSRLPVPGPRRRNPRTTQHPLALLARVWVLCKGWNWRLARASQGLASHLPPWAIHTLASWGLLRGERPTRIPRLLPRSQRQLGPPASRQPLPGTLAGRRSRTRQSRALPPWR
# Sequence of NUAK2 (human) (Q9H093 whole entry, looked up): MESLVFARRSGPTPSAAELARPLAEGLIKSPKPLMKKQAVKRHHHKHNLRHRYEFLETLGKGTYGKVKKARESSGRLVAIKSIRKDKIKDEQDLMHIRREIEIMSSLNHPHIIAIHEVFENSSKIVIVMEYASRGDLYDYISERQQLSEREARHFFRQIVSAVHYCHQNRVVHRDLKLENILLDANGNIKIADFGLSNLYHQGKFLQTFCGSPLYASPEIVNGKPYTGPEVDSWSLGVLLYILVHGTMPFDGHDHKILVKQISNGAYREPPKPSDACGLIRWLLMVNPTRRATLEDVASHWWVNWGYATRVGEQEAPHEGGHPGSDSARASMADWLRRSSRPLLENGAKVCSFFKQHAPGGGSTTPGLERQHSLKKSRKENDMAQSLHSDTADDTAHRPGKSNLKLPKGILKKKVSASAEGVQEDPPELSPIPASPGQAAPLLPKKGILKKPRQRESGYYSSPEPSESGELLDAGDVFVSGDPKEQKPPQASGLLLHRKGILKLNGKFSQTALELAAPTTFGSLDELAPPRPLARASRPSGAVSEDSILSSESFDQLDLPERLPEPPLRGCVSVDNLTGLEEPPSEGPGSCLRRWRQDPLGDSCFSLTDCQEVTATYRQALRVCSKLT
# Sequence of STK16 (human) (O75716 whole entry, looked up): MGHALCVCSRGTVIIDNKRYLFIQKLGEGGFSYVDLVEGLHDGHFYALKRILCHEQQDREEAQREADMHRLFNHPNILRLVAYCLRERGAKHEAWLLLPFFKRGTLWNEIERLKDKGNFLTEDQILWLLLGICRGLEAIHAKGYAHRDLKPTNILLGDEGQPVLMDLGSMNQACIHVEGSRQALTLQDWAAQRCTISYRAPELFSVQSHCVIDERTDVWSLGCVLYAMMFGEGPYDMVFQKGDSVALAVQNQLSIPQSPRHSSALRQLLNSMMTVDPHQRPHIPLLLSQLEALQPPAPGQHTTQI
structure (smiles),measurement,setting,value
O=C1NC(=O)C(c2cn(CCCO)c3ncccc23)=C1c1cnccn1,residual activity,LRRK2 (human),90%
same,residual activity,CAMK2G (human),90.6%
same,residual activity,TAOK2 (human),88.1%
same,residual activity,MAP3K3 (human),88.3%
same,residual activity,LIMK1 (human),96.4%
same,residual activity,PRKD1 (human),107%
same,residual activity,CDK7 CCNH MNAT1 (human),96.9%
same,residual activity,NUAK1 (human),59.4%
same,residual activity,PAK3 (human),92.9%
same,residual activity,STK25 (human),78.9%
same,residual activity,TAOK1 (human),132%
same,residual activity,INSRR (human),93.2%
same,residual activity,CLK4 (human),100%
same,residual activity,EPHA1 (human),73.9%
same,residual activity,CAMK2B (human),97.6%
same,residual activity,PRKACA (human),87.7%
same,residual activity,STK33 (human),82.8%
same,residual activity,PRKCH (human),81.6%
same,residual activity,MLTK (human),96.4%
same,residual activity,MARK2 (human),97.5%
same,residual activity,STK16 (human),90.3%
same,residual activity,MAP4K5 (human),37.5%
same,residual activity,SRPK3 (human),91.2%
same,residual activity,ADRBK2 (human),99.9%
same,residual activity,MAP3K14 (human),78.1%
same,residual activity,MAP3K8 (human),97%
same,residual activity,MYLK2 (human),81.1%
same,residual activity,DDR2 (human),94.6%
same,residual activity,CSNK1G1 (human),101%
same,residual activity,SGK2 (human),96.9%
same,residual activity,PRKX (human),106%
same,residual activity,MAPK14 (human),107%
same,residual activity,DAPK3 (human),80.2%
same,residual activity,DYRK1A (human),108%
same,residual activity,IKBKB (human),87.3%
same,residual activity,NTRK2 (human),99.7%
same,residual activity,GRK6 (human),102%
same,residual activity,TAOK3 (human),88.2%
same,residual activity,NUAK2 (human),92.3%
same,residual activity,MKNK2 (human),69.1%
same,residual activity,AKT3 (human),101%
same,residual activity,RPS6KA4 KD2 (human),101%
Cn1nc2c3c(cccc31)C(=O)c1ccccc1-2,residual activity,LRRK2 (human),55.9%
same,residual activity,CAMK2G (human),109%
same,residual activity,TAOK2 (human),104%
same,residual activity,MAP3K3 (human),94.4%
same,residual activity,LIMK1 (human),97.1%
same,residual activity,PRKD1 (human),69.3%
same,residual activity,CDK7 CCNH MNAT1 (human),98.8%
same,residual activity,NUAK1 (human),46.2%
same,residual activity,PAK3 (human),101%
same,residual activity,STK25 (human),96.5%
same,residual activity,TAOK1 (human),100%
same,residual activity,INSRR (human),82.7%
same,residual activity,CLK4 (human),69.8%
same,residual activity,EPHA1 (human),94.8%
same,residual activity,CAMK2B (human),95.3%
same,residual activity,PRKACA (human),104%
same,residual activity,STK33 (human),81.3%
same,residual activity,PRKCH (human),94.3%
same,residual activity,MLTK (human),83.1%
same,residual activity,MARK2 (human),94.1%
same,residual activity,STK16 (human),83.3%
same,residual activity,MAP4K5 (human),86%
same,residual activity,SRPK3 (human),96.3%
same,residual activity,ADRBK2 (human),93.6%
same,residual activity,MAP3K14 (human),107%
same,residual activity,MAP3K8 (human),94.3%
same,residual activity,MYLK2 (human),78.8%
same,residual activity,DDR2 (human),95.1%
same,residual activity,CSNK1G1 (human),102%
same,residual activity,SGK2 (human),98.9%
same,residual activity,PRKX (human),101%
same,residual activity,MAPK14 (human),93.6%
same,residual activity,DAPK3 (human),102%
same,residual activity,DYRK1A (human),94.1%
same,residual activity,IKBKB (human),103%
same,residual activity,NTRK2 (human),84%
same,residual activity,GRK6 (human),89.2%
same,residual activity,TAOK3 (human),87.6%
same,residual activity,NUAK2 (human),85.7%
same,residual activity,MKNK2 (human),94.1%
same,residual activity,AKT3 (human),102%
same,residual activity,RPS6KA4 KD2 (human),105%
Cn1cnc2cc3c(Nc4cccc(Br)c4)ncnc3cc21,residual activity,LRRK2 (human),68.2%
same,residual activity,CAMK2G (human),104%
same,residual activity,TAOK2 (human),103%
same,residual activity,MAP3K3 (human),109%
same,residual activity,LIMK1 (human),99%
same,residual activity,PRKD1 (human),99.4%
same,residual activity,CDK7 CCNH MNAT1 (human),99.5%
same,residual activity,NUAK1 (human),90.5%
same,residual activity,PAK3 (human),98.5%
same,residual activity,STK25 (human),99%
same,residual activity,TAOK1 (human),92.4%
same,residual activity,INSRR (human),92.1%
same,residual activity,CLK4 (human),88.5%
same,residual activity,EPHA1 (human),84.4%
same,residual activity,CAMK2B (human),102%
same,residual activity,PRKACA (human),105%
same,residual activity,STK33 (human),99.3%
same,residual activity,PRKCH (human),81.2%
same,residual activity,MLTK (human),93.3%
same,residual activity,MARK2 (human),96.6%
same,residual activity,STK16 (human),96.3%
same,residual activity,MAP4K5 (human),56.1%
same,residual activity,SRPK3 (human),94.9%
same,residual activity,ADRBK2 (human),89.9%
same,residual activity,MAP3K14 (human),90.6%
same,residual activity,MAP3K8 (human),90.1%
same,residual activity,MYLK2 (human),87.6%
same,residual activity,DDR2 (human),102%
same,residual activity,CSNK1G1 (human),104%
same,residual activity,SGK2 (human),104%
same,residual activity,PRKX (human),101%
same,residual activity,MAPK14 (human),93.6%
same,residual activity,DAPK3 (human),93.7%
same,residual activity,DYRK1A (human),106%
same,residual activity,IKBKB (human),104%
same,residual activity,NTRK2 (human),98.9%
same,residual activity,GRK6 (human),107%
same,residual activity,TAOK3 (human),97.6%
same,residual activity,NUAK2 (human),102%
same,residual activity,MKNK2 (human),32.2%
same,residual activity,AKT3 (human),89.5%
same,residual activity,RPS6KA4 KD2 (human),96.3%
CN(C)C[C@H]1CCn2c(c(C3=C(c4cn(C)c5ccccc45)C(=O)NC3=O)c3ccccc32)C1,residual activity,LRRK2 (human),93.1%
same,residual activity,CAMK2G (human),100%
same,residual activity,TAOK2 (human),87.7%
same,residual activity,MAP3K3 (human),86.1%
same,residual activity,LIMK1 (human),89.4%
same,residual activity,PRKD1 (human),101%
same,residual activity,CDK7 CCNH MNAT1 (human),83%
same,residual activity,NUAK1 (human),90.9%
same,residual activity,PAK3 (human),102%
same,residual activity,STK25 (human),96%
same,residual activity,TAOK1 (human),93%
same,residual activity,INSRR (human),98.7%
same,residual activity,CLK4 (human),111%
same,residual activity,EPHA1 (human),100%
same,residual activity,CAMK2B (human),96.9%
same,residual activity,PRKACA (human),87.2%
same,residual activity,STK33 (human),94.8%
same,residual activity,PRKCH (human),7.84%
same,residual activity,MLTK (human),87.3%
same,residual activity,MARK2 (human),94.9%
same,residual activity,STK16 (human),109%
same,residual activity,MAP4K5 (human),99.9%
same,residual activity,SRPK3 (human),100%
same,residual activity,ADRBK2 (human),102%
same,residual activity,MAP3K14 (human),105%
same,residual activity,MAP3K8 (human),95%
same,residual activity,MYLK2 (human),74.2%
same,residual activity,DDR2 (human),96%
same,residual activity,CSNK1G1 (human),97%
same,residual activity,SGK2 (human),71.7%
same,residual activity,PRKX (human),97.8%
same,residual activity,MAPK14 (human),108%
same,residual activity,DAPK3 (human),95.2%
same,residual activity,DYRK1A (human),88.7%
same,residual activity,IKBKB (human),105%
same,residual activity,NTRK2 (human),102%
same,residual activity,GRK6 (human),66.4%
same,residual activity,TAOK3 (human),96.4%
same,residual activity,NUAK2 (human),121%
same,residual activity,MKNK2 (human),85.8%
same,residual activity,AKT3 (human),56.3%
same,residual activity,RPS6KA4 KD2 (human),33.3%
